Source: ChEMBL document CHEMBL5291721, “A preclinical secondary pharmacology resource illuminates target-adverse drug reaction associations of marketed drugs” (Nat Commun, 2023)

How the values were obtained:
[1] = biological target: T1, Type-2 angiotensin II receptor (Homo sapiens, UniProt P50052); type: functional
T1 sequence (P50052 whole entry): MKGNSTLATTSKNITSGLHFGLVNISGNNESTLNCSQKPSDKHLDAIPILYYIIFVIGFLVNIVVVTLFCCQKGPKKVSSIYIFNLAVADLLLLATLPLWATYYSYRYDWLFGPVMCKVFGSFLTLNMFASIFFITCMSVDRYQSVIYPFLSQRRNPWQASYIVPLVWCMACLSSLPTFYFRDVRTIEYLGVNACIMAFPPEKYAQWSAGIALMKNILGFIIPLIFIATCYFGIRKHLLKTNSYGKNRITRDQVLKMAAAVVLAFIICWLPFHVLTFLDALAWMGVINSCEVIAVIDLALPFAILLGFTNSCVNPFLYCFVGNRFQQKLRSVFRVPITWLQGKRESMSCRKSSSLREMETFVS

Bile acid receptor = biological target: T2, Bile acid receptor (Homo sapiens, UniProt Q96RI1); type: functional
T2 sequence (Q96RI1 whole entry): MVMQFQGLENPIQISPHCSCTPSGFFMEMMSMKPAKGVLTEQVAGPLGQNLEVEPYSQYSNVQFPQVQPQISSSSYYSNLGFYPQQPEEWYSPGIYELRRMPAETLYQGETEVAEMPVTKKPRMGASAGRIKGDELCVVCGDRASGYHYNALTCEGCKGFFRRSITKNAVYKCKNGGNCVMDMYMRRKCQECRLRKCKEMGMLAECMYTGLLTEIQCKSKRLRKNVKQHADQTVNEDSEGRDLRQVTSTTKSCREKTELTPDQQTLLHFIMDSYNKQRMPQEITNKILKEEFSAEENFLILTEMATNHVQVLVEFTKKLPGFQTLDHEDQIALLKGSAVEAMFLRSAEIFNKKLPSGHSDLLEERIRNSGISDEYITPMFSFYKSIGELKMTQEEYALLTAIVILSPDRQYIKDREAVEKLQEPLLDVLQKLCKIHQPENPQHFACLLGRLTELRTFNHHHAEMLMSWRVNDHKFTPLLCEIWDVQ

[2] = biological target: T3, Retinoic acid receptor gamma (Homo sapiens, UniProt P13631); type: functional, cell-based
T3 sequence (P13631 whole entry): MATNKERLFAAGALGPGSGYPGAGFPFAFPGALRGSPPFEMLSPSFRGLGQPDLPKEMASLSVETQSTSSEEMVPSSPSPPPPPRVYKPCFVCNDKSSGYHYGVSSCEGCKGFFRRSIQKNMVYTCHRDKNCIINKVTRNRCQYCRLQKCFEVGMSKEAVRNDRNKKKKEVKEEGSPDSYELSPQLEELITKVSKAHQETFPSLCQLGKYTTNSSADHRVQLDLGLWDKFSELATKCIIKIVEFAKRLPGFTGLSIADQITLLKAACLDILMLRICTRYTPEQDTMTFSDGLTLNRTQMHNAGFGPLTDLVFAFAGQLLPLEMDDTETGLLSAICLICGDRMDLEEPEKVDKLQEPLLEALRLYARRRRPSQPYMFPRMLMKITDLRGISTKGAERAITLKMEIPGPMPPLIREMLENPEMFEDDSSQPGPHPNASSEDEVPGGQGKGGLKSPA
Also: assay procedure not described here.

Row | AC50 [1] [µM] | AC50 (Bile acid receptor) [µM] | AC50 [2] [µM] | Structure (SMILES)
1 | > 100 |  |  | C[C@H](CS)C(=O)N1CCC[C@H]1C(=O)O [CAPTOPRIL]
2 |  | > 30 | > 30 | CC(C)/N=c1\cc2n(-c3ccc(Cl)cc3)c3ccccc3nc-2cc1Nc1ccc(Cl)cc1 [CLOFAZIMINE]
